pIC50: −log10 of the molar value.
Columns and labels:
NCI-H2081 = assay: cells; format: functional, cell-based, Homo sapiens; details: Homo sapiens, NCI-H2081;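 note: growth inhibition of human NCI-H2081 cells, read out with a cell viability assay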
Description: SANGER: Inhibition of human NCI-H2081 cell growth in a cell viability assay.

EW-12 = assay: SANGER: Inhibition of human EW-12 cell growth in a cell viability assay.; format: functional, cell-based; details: Homo sapiens, EW-12
CMK = assay: cells; format: functional, cell-based, Homo sapiens; details: Homo sapiens, CMK;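 note: growth inhibition of CMK cells, read out as cell viability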
Description: SANGER: Inhibition of human CMK cell growth in a cell viability assay.

NB7 = assay: cells; format: functional, cell-based, Homo sapiens; details: Homo sapiens, NB7;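 note: growth inhibition of NB7 cells, read out with a cell viability assay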
Description: SANGER: Inhibition of human NB7 cell growth in a cell viability assay.

NCI-H128 = assay: SANGER: Inhibition of human NCI-H128 cell growth in a cell viability assay.; format: functional, cell-based; details: Homo sapiens, NCI-H128
BL-41 = assay: cells; format: functional, cell-based; details: Homo sapiens;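 note: growth inhibition of human BL-41 cells, read out with a cell viability assay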
Description: SANGER: Inhibition of human BL-41 cell growth in a cell viability assay.

CA46 = assay: cells; format: functional, cell-based, Homo sapiens; details: Homo sapiens, CA46;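 note: growth inhibition of human CA46 cells, read out by a cell viability assay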
Description: SANGER: Inhibition of human CA46 cell growth in a cell viability assay.

NCI-H322M = assay: cells; format: functional, cell-based, Homo sapiens; details: Homo sapiens, NCI-H322M;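 note: cell viability assay measuring inhibition of growth of human NCI-H322M cells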
Description: SANGER: Inhibition of human NCI-H322M cell growth in a cell viability assay.

CAL-148 = assay: cells; format: functional, cell-based, Homo sapiens; details: Homo sapiens, CAL-148
Description: SANGER: Inhibition of human CAL-148 cell growth in a cell viability assay.

NCI-H2141 = assay: cells; format: functional, cell-based, Homo sapiens; details: Homo sapiens, NCI-H2141;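 note: growth inhibition of human NCI-H2141 cells, read out with a cell viability assay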
Description: SANGER: Inhibition of human NCI-H2141 cell growth in a cell viability assay.

EW-22 = assay: cells; format: functional, cell-based; details: Homo sapiens;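 note: growth inhibition of the EW-22 cell line, measured with a cell viability readout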
Description: SANGER: Inhibition of human EW-22 cell growth in a cell viability assay.

OAW-42 = assay: cells; format: functional, cell-based; details: Homo sapiens;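 note: growth inhibition of OAW-42 cells, read out with a cell viability assay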
Description: SANGER: Inhibition of human OAW-42 cell growth in a cell viability assay.

P12-Ichikawa = assay: cells; format: functional, cell-based; details: Homo sapiens
MCF7 = assay: cells; format: functional, cell-based; details: Homo sapiens;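 note: growth inhibition of human MCF7 cells, read out with a cell viability assay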
Description: SANGER: Inhibition of human MCF7 cell growth in a cell viability assay.

DK-MG = assay: cells; format: functional, cell-based; details: Homo sapiens;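 note: growth inhibition of DK-MG cells, read out with a cell viability assay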
Description: SANGER: Inhibition of human DK-MG cell growth in a cell viability assay.

BALL-1 = assay: cells; format: functional, cell-based; details: Homo sapiens;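 note: growth inhibition of BALL-1 cells, read out with a cell viability assay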
Description: SANGER: Inhibition of human BALL-1 cell growth in a cell viability assay.

HuP-T3 = assay: cells; format: functional, cell-based; details: Homo sapiens;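 note: HuP-T3 cell growth inhibition, read out with a cell viability assay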
Description: SANGER: Inhibition of human HuP-T3 cell growth in a cell viability assay.

CAL-33 = assay: cells; format: functional, cell-based; details: Homo sapiens;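 note: growth inhibition of CAL-33 cells, read out with a cell viability assay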
Description: SANGER: Inhibition of human CAL-33 cell growth in a cell viability assay.

NCI-H1666 = assay: cells; format: functional, cell-based; details: Homo sapiens;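 note: growth inhibition of the cell line, read out with a cell viability assay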
Description: SANGER: Inhibition of human NCI-H1666 cell growth in a cell viability assay.

TI-73 = assay: cells; format: functional, cell-based; details: Homo sapiens;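 note: cell viability assay measuring how much compounds suppress growth of the cultured cell line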
Description: SANGER: Inhibition of human TI-73 cell growth in a cell viability assay.

AN3-CA = assay: cells; format: functional, cell-based; details: Homo sapiens;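 note: growth inhibition of human AN3-CA cells measured by a cell viability assay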
Description: SANGER: Inhibition of human AN3-CA cell growth in a cell viability assay.

BFTC-909 = assay: cells; format: functional, cell-based; details: Homo sapiens
Description: SANGER: Inhibition of human BFTC-909 cell growth in a cell viability assay.

CAL-54 = assay: cells; format: functional, cell-based; details: Homo sapiens;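 note: growth inhibition of CAL-54 cells, read out by a viability measurement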
Description: SANGER: Inhibition of human CAL-54 cell growth in a cell viability assay.

ME-180 = assay: cells; format: functional, cell-based; details: Homo sapiens;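 note: cell viability assay measuring growth inhibition of ME-180 cells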
Description: SANGER: Inhibition of human ME-180 cell growth in a cell viability assay.

U-118-MG = assay: cells; format: functional, cell-based; details: Homo sapiens
Description: SANGER: Inhibition of human U-118-MG cell growth in a cell viability assay.

HCC38 = assay: cells; format: functional, cell-based; details: Homo sapiens;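 note: cell viability assay on the human HCC38 cell line, with IC50 marking the concentration that inhibits cell growth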
Description: SANGER: Inhibition of human HCC38 cell growth in a cell viability assay.

RH-18 = assay: cells; format: functional, cell-based; details: Homo sapiens, Rh18;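 note: growth inhibition of human RH-18 cells, read out with a cell viability assay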
Description: SANGER: Inhibition of human RH-18 cell growth in a cell viability assay.

D-423MG = assay: cells; format: functional, cell-based; details: Homo sapiens
Description: SANGER: Inhibition of human D-423MG cell growth in a cell viability assay.

YAPC = assay: cells; format: functional, cell-based; details: Homo sapiens;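 note: growth inhibition of YAPC cells, measured with a cell viability assay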
Description: SANGER: Inhibition of human YAPC cell growth in a cell viability assay.

LCLC-97TM1 = assay: cells; format: functional, cell-based; details: Homo sapiens;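 note: cell viability assay measuring growth inhibition of human LCLC-97TM1 cells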
Description: SANGER: Inhibition of human LCLC-97TM1 cell growth in a cell viability assay.

MDA-MB-175-VII = assay: cells; format: functional, cell-based; details: Homo sapiens
CAKI-1 = assay: cells; format: functional, cell-based; details: Homo sapiens;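 note: growth inhibition of CAKI-1 cells, measured by a cell viability assay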
Description: SANGER: Inhibition of human CAKI-1 cell growth in a cell viability assay.

VMRC-RCZ = assay: cells; format: functional, cell-based; details: Homo sapiens
Description: SANGER: Inhibition of human VMRC-RCZ cell growth in a cell viability assay.

RERF-LC-MS = assay: cells; format: functional, cell-based; details: Homo sapiens;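 note: growth inhibition of human RERF-LC-MS cells, read out by a cell viability assay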
Description: SANGER: Inhibition of human RERF-LC-MS cell growth in a cell viability assay.

SJRH30 = assay: cells; format: functional, cell-based; details: Homo sapiens;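 note: growth inhibition of human SJRH30 cells, read out with a cell viability assay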
Description: SANGER: Inhibition of human SJRH30 cell growth in a cell viability assay.

D-566MG = assay: cells; format: functional, cell-based; details: Homo sapiens
NCI-H1563 = assay: cells; format: functional, cell-based; details: Homo sapiens;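 note: growth inhibition of human NCI-H1563 cells, read out with a cell viability assay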
Description: SANGER: Inhibition of human NCI-H1563 cell growth in a cell viability assay.

SKG-IIIa = assay: cells; format: functional, cell-based; details: Homo sapiens;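 note: cell growth inhibition, read out with a cell viability assay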
Description: SANGER: Inhibition of human SKG-IIIa cell growth in a cell viability assay.

BT-20 = assay: cells; format: functional, cell-based; details: Homo sapiens;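 note: cell viability assay measuring suppression of growth in human BT-20 cells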
Description: SANGER: Inhibition of human BT-20 cell growth in a cell viability assay.

H-EMC-SS = assay: cells; format: functional, cell-based; details: Homo sapiens
Description: SANGER: Inhibition of human H-EMC-SS cell growth in a cell viability assay.

TGBC11TKB = assay: cells; format: functional, cell-based; details: Homo sapiens;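 note: growth inhibition of human TGBC11TKB cells, measured by a cell viability assay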
Description: SANGER: Inhibition of human TGBC11TKB cell growth in a cell viability assay.

EPLC-272H = assay: cells; format: functional, cell-based; details: Homo sapiens
Description: SANGER: Inhibition of human EPLC-272H cell growth in a cell viability assay.

647-V = assay: cells; format: functional, cell-based; details: Homo sapiens;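 note: growth inhibition of 647-V cells, read out with a cell viability assay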
Description: SANGER: Inhibition of human 647-V cell growth in a cell viability assay.

EGI-1 = assay: cells; format: functional, cell-based; details: Homo sapiens;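 note: cell viability readout used to gauge growth inhibition of EGI-1 cells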
Description: SANGER: Inhibition of human EGI-1 cell growth in a cell viability assay.

A-427 = assay: cells; format: functional, cell-based; details: Homo sapiens;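 note: growth inhibition of human A-427 cells, read out by a cell viability assay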
Description: SANGER: Inhibition of human A427 cell growth in a cell viability assay.

HCC1395 = assay: cells; format: functional, cell-based; details: Homo sapiens;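 note: growth inhibition of HCC1395 cells, read out by a cell viability assay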
Description: SANGER: Inhibition of human HCC1395 cell growth in a cell viability assay.

IGROV-1 = assay: cells; format: functional, cell-based; details: Homo sapiens;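 note: reduction of IGROV-1 cell growth, read out with a viability assay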
Description: SANGER: Inhibition of human IGROV-1 cell growth in a cell viability assay.

8505C = assay: cells; format: functional, cell-based; details: Homo sapiens
Description: SANGER: Inhibition of human 8505C cell growth in a cell viability assay.

MKN-7 = assay: cells; format: functional, cell-based; details: Homo sapiens;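 note: growth inhibition of MKN-7 cells, read out with a cell viability assay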
Description: SANGER: Inhibition of human MKN7 cell growth in a cell viability assay.

MDA-MB-453 = assay: cells; format: functional, cell-based; details: Homo sapiens
Description: SANGER: Inhibition of human MDA-MB-453 cell growth in a cell viability assay.

Q: How did the pIC50 (NCI-H2081) turn out when `C=CC(=O)N1CCCC(Nc2nc(Nc3ccc(N(C)C(=O)CC)cc3)nc3[nH]cnc23)C1` (configuration not stated) was run?
A: < 4.99

Q: And the pIC50 (EW-12)?
A: < 4.99

Q: What about the pIC50 (CMK) of the same compound?
A: < 4.99

Q: And the pIC50 (NB7)?
A: < 4.99

Q: And the pIC50 (NCI-H128)?
A: < 4.99

Q: And the pIC50 (BL-41)?
A: < 4.99

Q: And the pIC50 (CA46)?
A: < 4.99

Q: What about the pIC50 (NCI-H322M) of the same compound?
A: < 4.99

Q: What about the pIC50 (CAL-148) of the same compound?
A: < 4.99

Q: What about the pIC50 (NCI-H2141) of the same compound?
A: < 4.99

Q: How did the pIC50 (NCI-H2081) turn out when `COc1ccc(N(C(=O)Oc2c(C)cccc2C)c2ccnc(Nc3ccc(N4CCN(C)CC4)cc3)n2)c(OC)c1` was run?
A: < 5.29

Q: What about the pIC50 (EW-12) of the same compound?
A: < 5.29

Q: And the pIC50 (CMK)?
A: < 5.29

Q: What about the pIC50 (NB7) of the same compound?
A: < 5.29

Q: What about the pIC50 (NCI-H128) of the same compound?
A: < 5.29

Q: And the pIC50 (BL-41)?
A: 6.00

Q: And the pIC50 (CA46)?
A: < 5.29

Q: And the pIC50 (NCI-H322M)?
A: < 5.29

Q: And the pIC50 (CAL-148)?
A: < 5.29

Q: And the pIC50 (NCI-H2141)?
A: < 5.29

Q: How did the pIC50 (NCI-H2081) turn out when `Cc1cc(N2CCOCC2)cc2[nH]c(-c3c(NC[C@@H](O)c4cccc(Cl)c4)cc[nH]c3=O)nc12` was run?
A: < 5.29

Q: What about the pIC50 (EW-12) of the same compound?
A: < 5.29

Q: What about the pIC50 (CMK) of the same compound?
A: 6.13

Q: And the pIC50 (NB7)?
A: < 5.29

Q: What about the pIC50 (NCI-H128) of the same compound?
A: < 5.29

Q: What about the pIC50 (BL-41) of the same compound?
A: < 5.29

Q: And the pIC50 (CA46)?
A: < 5.29

Q: And the pIC50 (NCI-H322M)?
A: < 5.29

Q: What about the pIC50 (CAL-148) of the same compound?
A: < 5.29

Q: And the pIC50 (NCI-H2141)?
A: < 5.29

Q: With `NC(=O)c1cccc(-c2cc(Nc3ccc(OC(F)(F)F)cc3)ncn2)c1` as the compound, how does the pIC50 (NCI-H2081) read?
A: < 5.89

Q: What about the pIC50 (EW-12) of the same compound?
A: < 5.89

Q: What about the pIC50 (CMK) of the same compound?
A: < 5.89

Q: What about the pIC50 (NB7) of the same compound?
A: < 5.89

Q: What about the pIC50 (NCI-H128) of the same compound?
A: < 5.89

Q: What about the pIC50 (BL-41) of the same compound?
A: < 5.89

Q: And the pIC50 (CA46)?
A: < 5.89

Q: What about the pIC50 (NCI-H322M) of the same compound?
A: < 5.89

Q: And the pIC50 (CAL-148)?
A: < 5.89

Q: And the pIC50 (NCI-H2141)?
A: < 5.89

Q: With `CC(C)C[C@H](NC(=O)[C@H](Cc1ccccc1)NC(=O)c1cnccn1)B(O)O` [BORTEZOMIB] as the compound, how does the pIC50 (NCI-H2081) read?
A: 8.00

Q: What about the pIC50 (EW-12) of the same compound?
A: < 7.70

Q: What about the pIC50 (CMK) of the same compound?
A: 8.89

Q: And the pIC50 (NB7)?
A: 7.80

Q: What about the pIC50 (NCI-H128) of the same compound?
A: < 7.70

Q: What about the pIC50 (BL-41) of the same compound?
A: 8.90

Q: And the pIC50 (CA46)?
A: < 7.70

Q: What about the pIC50 (NCI-H322M) of the same compound?
A: < 7.70

Q: And the pIC50 (EW-22)?
A: < 7.70

Q: And the pIC50 (CAL-148)?
A: < 7.70

Q: And the pIC50 (NCI-H2141)?
A: 8.39

Q: What does the source list for `O=C(NCCCNc1nc(Nc2cccc(NC(=O)N3CCCC3)c2)ncc1I)c1cccs1` [BX-795]?
A: pIC50 (OAW-42): 5.44; pIC50 (P12-Ichikawa): 5.93; pIC50 (MCF7): < 5.30; pIC50 (DK-MG): 5.80; pIC50 (BALL-1): < 5.30; pIC50 (HuP-T3): < 5.30; pIC50 (CAL-33): < 5.30; pIC50 (NCI-H1666): < 5.30; pIC50 (TI-73): 5.67; pIC50 (NB7): < 5.30; pIC50 (AN3-CA): 5.79; pIC50 (BFTC-909): 5.33; pIC50 (CAL-54): < 5.30; pIC50 (ME-180): 5.47; pIC50 (U-118-MG): < 5.30; pIC50 (HCC38): < 5.30; pIC50 (RH-18): < 5.30; pIC50 (EW-22): 5.41; pIC50 (D-423MG): 5.79; pIC50 (YAPC): < 5.30; pIC50 (LCLC-97TM1): < 5.30; pIC50 (MDA-MB-175-VII): < 5.30; pIC50 (CAKI-1): 5.64; pIC50 (VMRC-RCZ): 5.56; pIC50 (RERF-LC-MS): < 5.30; pIC50 (SJRH30): < 5.30; pIC50 (D-566MG): 5.88; pIC50 (NCI-H1563): < 5.30; pIC50 (SKG-IIIa): < 5.30; pIC50 (BT-20): < 5.30; pIC50 (H-EMC-SS): < 5.30; pIC50 (TGBC11TKB): < 5.30; pIC50 (EPLC-272H): < 5.30; pIC50 (647-V): < 5.30; pIC50 (EGI-1): < 5.30; pIC50 (A-427): 5.76; pIC50 (HCC1395): < 5.30; pIC50 (IGROV-1): < 5.30; pIC50 (8505C): 5.42; pIC50 (MKN-7): < 5.30; pIC50 (MDA-MB-453): < 5.30

— ChEMBL document CHEMBL1201861, “Genomics of Drug Sensitity in Cancer screening data, Wellcome Trust Sanger Institute”
